In the assay the target is T1, RecBCD enzyme (RecB subunit) (Escherichia coli, UniProt P08394).
T1 construct: RecBCD holoenzyme (330 kDa, three subunits); with RecC and RecD
Briefly: RecBCD nuclease assay with [3H] phage T7 DNA, […] ATP; unaffected by Triton X-100. The format is biochemical.

T1 sequence (P08394 2-1180): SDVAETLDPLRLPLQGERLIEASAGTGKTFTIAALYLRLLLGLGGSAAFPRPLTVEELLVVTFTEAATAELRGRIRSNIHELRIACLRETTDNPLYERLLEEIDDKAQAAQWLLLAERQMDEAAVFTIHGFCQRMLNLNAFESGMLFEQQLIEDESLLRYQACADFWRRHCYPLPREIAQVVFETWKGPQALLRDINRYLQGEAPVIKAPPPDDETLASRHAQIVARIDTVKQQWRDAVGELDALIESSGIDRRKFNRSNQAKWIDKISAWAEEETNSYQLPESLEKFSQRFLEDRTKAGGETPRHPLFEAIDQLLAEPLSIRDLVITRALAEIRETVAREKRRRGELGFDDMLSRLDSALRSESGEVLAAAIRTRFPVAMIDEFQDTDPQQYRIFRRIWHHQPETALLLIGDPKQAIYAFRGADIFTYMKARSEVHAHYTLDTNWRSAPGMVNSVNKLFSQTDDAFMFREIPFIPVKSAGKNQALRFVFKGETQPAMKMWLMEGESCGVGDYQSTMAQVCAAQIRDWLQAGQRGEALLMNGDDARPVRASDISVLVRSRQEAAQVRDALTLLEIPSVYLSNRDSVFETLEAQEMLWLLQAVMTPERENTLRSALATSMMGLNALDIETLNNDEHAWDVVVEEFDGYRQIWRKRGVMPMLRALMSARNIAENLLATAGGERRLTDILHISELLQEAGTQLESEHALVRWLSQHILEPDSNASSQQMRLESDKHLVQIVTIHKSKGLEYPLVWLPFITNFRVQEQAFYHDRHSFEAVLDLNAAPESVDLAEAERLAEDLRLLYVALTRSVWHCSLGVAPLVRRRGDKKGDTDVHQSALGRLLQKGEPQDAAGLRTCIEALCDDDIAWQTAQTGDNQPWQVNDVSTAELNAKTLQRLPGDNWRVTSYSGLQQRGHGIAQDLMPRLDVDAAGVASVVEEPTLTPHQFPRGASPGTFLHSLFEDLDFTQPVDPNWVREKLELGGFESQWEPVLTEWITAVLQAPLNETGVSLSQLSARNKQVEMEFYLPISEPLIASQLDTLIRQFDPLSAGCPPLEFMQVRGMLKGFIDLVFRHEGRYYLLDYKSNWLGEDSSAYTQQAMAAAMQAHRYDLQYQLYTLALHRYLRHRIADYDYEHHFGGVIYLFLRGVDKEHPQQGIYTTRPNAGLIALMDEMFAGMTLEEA
T1 sequence (P07648 whole entry, further chain): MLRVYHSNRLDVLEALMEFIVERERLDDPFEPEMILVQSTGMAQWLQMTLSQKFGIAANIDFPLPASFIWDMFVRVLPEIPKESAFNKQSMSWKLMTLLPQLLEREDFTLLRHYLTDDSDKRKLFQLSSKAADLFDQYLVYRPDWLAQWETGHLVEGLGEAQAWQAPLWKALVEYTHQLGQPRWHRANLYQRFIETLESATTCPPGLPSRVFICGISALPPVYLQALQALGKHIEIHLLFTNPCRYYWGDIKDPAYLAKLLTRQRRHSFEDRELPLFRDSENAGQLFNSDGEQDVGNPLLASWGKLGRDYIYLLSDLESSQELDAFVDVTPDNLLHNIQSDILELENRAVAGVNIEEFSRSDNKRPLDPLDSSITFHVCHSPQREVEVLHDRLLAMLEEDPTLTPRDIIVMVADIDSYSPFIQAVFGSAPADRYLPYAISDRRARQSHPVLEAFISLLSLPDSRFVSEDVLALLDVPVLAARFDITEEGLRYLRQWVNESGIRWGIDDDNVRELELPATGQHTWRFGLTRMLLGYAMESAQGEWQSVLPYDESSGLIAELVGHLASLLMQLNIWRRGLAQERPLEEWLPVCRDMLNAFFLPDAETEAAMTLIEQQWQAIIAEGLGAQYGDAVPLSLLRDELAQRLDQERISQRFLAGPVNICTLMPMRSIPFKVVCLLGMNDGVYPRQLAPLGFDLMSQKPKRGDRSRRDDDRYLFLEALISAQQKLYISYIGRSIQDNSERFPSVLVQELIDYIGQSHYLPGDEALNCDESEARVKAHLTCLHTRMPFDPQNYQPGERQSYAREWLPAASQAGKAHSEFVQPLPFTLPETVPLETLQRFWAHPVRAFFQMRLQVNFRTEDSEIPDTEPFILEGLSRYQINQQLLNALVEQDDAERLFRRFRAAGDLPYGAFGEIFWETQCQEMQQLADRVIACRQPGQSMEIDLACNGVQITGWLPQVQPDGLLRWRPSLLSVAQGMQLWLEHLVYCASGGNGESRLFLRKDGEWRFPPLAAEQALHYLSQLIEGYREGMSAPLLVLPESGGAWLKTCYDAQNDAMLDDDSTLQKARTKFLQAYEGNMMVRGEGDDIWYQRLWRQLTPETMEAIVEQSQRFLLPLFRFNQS
T1 sequence (P04993 whole entry, further chain): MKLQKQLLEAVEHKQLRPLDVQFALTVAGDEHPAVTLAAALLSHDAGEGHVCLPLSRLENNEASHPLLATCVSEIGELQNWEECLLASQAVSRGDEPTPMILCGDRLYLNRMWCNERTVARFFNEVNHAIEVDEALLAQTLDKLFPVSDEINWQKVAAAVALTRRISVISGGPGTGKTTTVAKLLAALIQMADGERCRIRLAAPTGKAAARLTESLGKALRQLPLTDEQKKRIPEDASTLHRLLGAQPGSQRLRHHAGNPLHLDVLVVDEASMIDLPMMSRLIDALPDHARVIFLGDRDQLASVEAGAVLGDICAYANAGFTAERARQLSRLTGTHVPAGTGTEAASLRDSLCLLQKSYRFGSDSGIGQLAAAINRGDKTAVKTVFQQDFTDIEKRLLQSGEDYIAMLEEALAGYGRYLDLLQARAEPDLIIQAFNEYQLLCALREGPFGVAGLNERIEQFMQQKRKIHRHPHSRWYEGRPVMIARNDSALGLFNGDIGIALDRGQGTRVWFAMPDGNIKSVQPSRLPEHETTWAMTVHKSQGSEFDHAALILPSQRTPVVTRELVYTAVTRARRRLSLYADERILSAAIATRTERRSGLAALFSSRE

Usually IC50 stands for the concentration at which inhibition is half-maximal. Low values mean higher potency, high ones lower potency. The compound `CCC(Sc1nnc2n(CCOc3ccccc3Cl)c3ccccc3n12)C(=O)O` (stereo not shown) [NSAC1003, 2-({7-[2-(2-chlorophenoxy)ethyl]-2,4,5,7-tetraazatricyclo[6.4.0.0^2,^6]dodeca-1(8),3,5,9,11-pentaen-3-yl}sulfanyl)butanoic acid] displayed an IC50 of 6.3 ± 0.3 µM.

(Values after PMC7641324, “Small-molecule sensitization of RecBCD helicase–nuclease to a Chi hotspot-activated state” (Nucleic Acids Research, 2020).)
